Here are results for twelve compounds from PubChem BioAssay (NCI).

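Results reflect a 48-hour exposure of cells in 96-well plates to compound at five concentrations. GI50 = concentration required for 50% inhibition of growth. Definition used: TGI = concentration required for complete inhibition of growth.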 Where only a bound is given, the exact number is not on record here.

Test systems include ACHN renal; DLD-1 colon; HOP-62 NSCLC; HT29 colon; KM20L2 colon; NCI-H23 lung; OVCAR-3 ovarian; SW-620 colon; U251 CNS; UACC-62 melanoma.
Holding throughout (test): NCI tumour cell line growth inhibition, 48 h

With `C=CCn1c(=S)sc2c(C(=O)OCC)c3c(C)cc(C)cn3c2c1=O`, the TGI in the test with ACHN renal, in the test on DLD-1 colon, in the test on HOP-62 NSCLC, with HT29 colon, in the test on KM20L2 colon and in the test on NCI-H23 lung was > 100 µM each time. Moreover, the TGI in the test with OVCAR-3 ovarian, in the test with SW-620 colon, with U251 CNS and in the test with UACC-62 melanoma was > 100 µM in each case.
As for `CCOC(=O)NC(=O)c1cn(CCN2CCN(C(=O)CNC(=O)CNC(=O)Cn3cc(C(=O)NC(=O)OCC)c(=O)[nH]c3=O)CC2)c(=O)[nH]c1=O`, the TGI with ACHN renal, in the test with DLD-1 colon, with HOP-62 NSCLC, in the test with HT29 colon, in the test with KM20L2 colon and in the test with NCI-H23 lung was > 100 µM throughout. For the same compound, the TGI with OVCAR-3 ovarian, in the test on SW-620 colon, in the test on U251 CNS and in the test with UACC-62 melanoma was > 100 µM in each case.
Regarding `CC(C)C1CO[C@]2(C)CCC(=O)N12` (some centres undefined), the TGI in the test with ACHN renal, in the test with DLD-1 colon, in the test with HOP-62 NSCLC, in the test with HT29 colon, with KM20L2 colon and with NCI-H23 lung was > 100 µM in each case. Also, the TGI with OVCAR-3 ovarian, with SW-620 colon, with U251 CNS and in the test on UACC-62 melanoma was > 100 µM throughout.
`Cc1ccc(S(=O)(=O)N/N=C(\c2nc3ccc(Cl)cc3[nH]c2=O)C(O)c2ccco2)cc1` (centres undefined): the TGI in the test on ACHN renal, in the test on DLD-1 colon, in the test on HT29 colon, with KM20L2 colon, with NCI-H23 lung and in the test on OVCAR-3 ovarian was > 100 µM in each case. Further, the TGI in the test with SW-620 colon and in the test with UACC-62 melanoma was > 100 µM each time.
As for `CCO/C=C1\N=C(c2ccc(Cl)c(Cl)c2)OC1=O`, the TGI in the test with ACHN renal, in the test on DLD-1 colon, with HOP-62 NSCLC, in the test on HT29 colon, in the test with KM20L2 colon and with NCI-H23 lung was > 100 µM in each case. In addition, the TGI in the test with OVCAR-3 ovarian, in the test with SW-620 colon and with UACC-62 melanoma was > 100 µM throughout.
`Cc1cc(N(CCC#N)S(=O)(=O)c2ccccc2)ccc1/C=C1\N=C(c2ccc(Cl)cc2)OC1=O`: the TGI in the test with ACHN renal, in the test on DLD-1 colon, with HT29 colon, in the test with KM20L2 colon, in the test on NCI-H23 lung and in the test with OVCAR-3 ovarian was > 100 µM throughout. Also, the TGI in the test with SW-620 colon, in the test on U251 CNS and in the test with UACC-62 melanoma was > 100 µM in each case.
`CO/N=C(\COc1ccc2c(=O)c3ccccc3oc2c1)c1ccccc1`: the GI50 was 24 µM in the test with ACHN renal; 26.8 µM in the test with HOP-62 NSCLC; 86.5 µM in the test with HT29 colon; > 100 µM in the test with NCI-H23 lung; 27.4 µM in the test with OVCAR-3 ovarian; 55.9 µM in the test with SW-620 colon. In addition, the results for the GI50 in the test with U251 CNS and with UACC-62 melanoma were 26.6 µM and 21.6 µM, respectively. For the same compound, the TGI in the test with ACHN renal is 52.7 µM; with HOP-62 NSCLC, 78.3 µM; with HT29 colon, > 100 µM; in the test on NCI-H23 lung, > 100 µM; in the test with OVCAR-3 ovarian it was 79.3 µM; in the test on SW-620 colon it was > 100 µM. The TGI in the test on U251 CNS is 79.2 µM; in the test on UACC-62 melanoma it was 49.9 µM.
As to `O=c1cc(-c2ccccn2)[nH]c2cccc(F)c12`, the TGI in the test on ACHN renal, with DLD-1 colon, in the test on HOP-62 NSCLC, with HT29 colon, in the test on KM20L2 colon and with NCI-H23 lung was > 100 µM each time. Besides, the TGI in the test on OVCAR-3 ovarian, in the test on SW-620 colon and in the test on UACC-62 melanoma was > 100 µM each time.
On to `COc1c(C(C)=O)c(OCCCCOc2c(C(C)=O)c(OC)c3ccoc3c2OC)c(OC)c2occc12`, for which the GI50 was 3.6 µM in the test with ACHN renal; > 100 µM in the test on HOP-62 NSCLC; 4.06 µM in the test on HT29 colon; 4.64 µM in the test on NCI-H23 lung; 3.75 µM in the test on OVCAR-3 ovarian; > 100 µM in the test with SW-620 colon. Moreover, the GI50 was > 28.1 µM in the test on U251 CNS and 2.13 µM with UACC-62 melanoma. For the same compound, the TGI in the test on ACHN renal, in the test on HOP-62 NSCLC, with HT29 colon, with NCI-H23 lung, in the test with OVCAR-3 ovarian and in the test with SW-620 colon was > 100 µM throughout. Besides, the TGI in the test on U251 CNS and in the test on UACC-62 melanoma was > 100 µM in each case.
For `Fc1cccc(F)c1C1SCc2nc3cc(Cl)c(Cl)cc3n21` (centres undefined), the TGI in the test on ACHN renal, in the test with HOP-62 NSCLC, in the test with HT29 colon, in the test with NCI-H23 lung, in the test with OVCAR-3 ovarian and with SW-620 colon was > 100 µM in each case. Further, the TGI in the test with U251 CNS and in the test with UACC-62 melanoma was > 100 µM throughout.
Turning to `COc1cc(-c2nc3ccccc3s2)ccc1OCCCCOc1cc2c(cc1OC)C(=O)N1CCC[C@H]1C=N2`, the GI50 in the test on ACHN renal was 1.31 µM; with HOP-62 NSCLC, 1.56 µM; with HT29 colon it was 0.724 µM; in the test on NCI-H23 lung, 1.47 µM; in the test with OVCAR-3 ovarian, 0.728 µM; in the test on SW-620 colon, 0.801 µM. The GI50 in the test on U251 CNS is 0.489 µM; in the test with UACC-62 melanoma, 1.41 µM. For the same compound, the TGI in the test on ACHN renal stood at 5.8 µM; in the test on HOP-62 NSCLC it was 3.37 µM; in the test with HT29 colon it was 7.14 µM; in the test on NCI-H23 lung, 4.72 µM; with OVCAR-3 ovarian, 4.78 µM; in the test with SW-620 colon, 2.72 µM. In addition, the TGI in the test with U251 CNS stood at 1.63 µM; in the test with UACC-62 melanoma, 2.84 µM.
For the compound `O=c1c2c([nH]c3nccn13)CCC2`, the TGI in the test on ACHN renal, in the test on HOP-62 NSCLC, in the test on HT29 colon, in the test on NCI-H23 lung, in the test with OVCAR-3 ovarian and with SW-620 colon was > 10 µM throughout. The TGI in the test on U251 CNS and in the test on UACC-62 melanoma was > 10 µM throughout.
